Series [1] addresses T1, steroid sulphatase (Homo sapiens, UniProt P08842).
T1 sequence (P08842 22-583): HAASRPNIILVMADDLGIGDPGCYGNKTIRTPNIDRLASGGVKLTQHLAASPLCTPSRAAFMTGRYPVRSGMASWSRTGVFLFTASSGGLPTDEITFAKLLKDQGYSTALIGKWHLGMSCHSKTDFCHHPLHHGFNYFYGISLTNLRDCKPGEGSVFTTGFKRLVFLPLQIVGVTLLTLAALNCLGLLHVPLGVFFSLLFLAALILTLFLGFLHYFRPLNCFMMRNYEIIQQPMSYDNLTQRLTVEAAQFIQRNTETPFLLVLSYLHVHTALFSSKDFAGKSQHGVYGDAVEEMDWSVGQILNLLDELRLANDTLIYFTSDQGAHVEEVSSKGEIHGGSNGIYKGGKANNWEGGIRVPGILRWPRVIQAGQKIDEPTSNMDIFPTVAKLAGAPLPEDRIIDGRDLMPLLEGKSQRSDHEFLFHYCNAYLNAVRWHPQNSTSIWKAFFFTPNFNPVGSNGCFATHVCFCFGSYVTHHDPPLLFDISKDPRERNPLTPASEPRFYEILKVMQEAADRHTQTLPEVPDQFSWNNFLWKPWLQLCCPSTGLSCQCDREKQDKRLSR
As to conditions: cited from earlier work.

For series [2], the system named is uterus. As to conditions: cited from earlier work.
Series [3] deals with T1, steroid sulphatase. Briefly: Inhibition of steroid sulphatase activity in placental microsomes (Protocol 2). The class given is biochemical. Also on record: host or cells: JEG3 choriocarcinoma cells (intact monolayers). As to conditions: read-out: SULPHATASE % inhibition at 10 μM in placental microsomes. On the procedure:
Inhibition of Steroid Sulphatase Activity in Placental Microsomes
Sulphatase-positive human placenta from normal term pregnancies are thoroughly minced with scissors and washed once with cold phosphate buffer (pH 7.4, 50 mM) then re-suspended in cold phosphate buffer (5 ml/g tissue). Homogenisation is accomplished with an Ultra-Turrax homogeniser, using three 10 second bursts separated by 2 minute cooling periods in ice. Nuclei and cell debris are removed by centrifuging (4° C.) at 2000 g for 30 minutes and portions (2 ml) of the supernatant are stored at […] The protein concentration of the supernatants is determined by the method of Bradford (Anal. Biochem., 72, 248-254 (1976)).
Incubations (1 ml) are carried out using a protein concentration of […], substrate concentration of […] [6,7-3H]oestrone-3-sulphate (specific activity 60 Ci/mmol from New England Nuclear, Boston, Mass., U.S.A.) and an incubation time of 20 minutes at 37° C. […] A portion (2 ml) of the organic phase was removed, evaporated and the 3H and 14C content of the residue determined by scintillation spectrometry. The mass of oestrone-3-sulphate hydrolysed is calculated from the 3H counts obtained (corrected for the volumes of the medium and organic phase used, and for recovery of [14C]oestrone added) and the specific activity of the substrate.

For series [4], the target named is T2, aromatase (Homo sapiens, UniProt P11511).
T2 construct: Aromatase activity is measured in JEG3 choriocarcinoma cells, obtained from the ATCC; host or cells: JEG3 choriocarcinoma cells (intact monolayers)
T2 sequence (P11511 1-503): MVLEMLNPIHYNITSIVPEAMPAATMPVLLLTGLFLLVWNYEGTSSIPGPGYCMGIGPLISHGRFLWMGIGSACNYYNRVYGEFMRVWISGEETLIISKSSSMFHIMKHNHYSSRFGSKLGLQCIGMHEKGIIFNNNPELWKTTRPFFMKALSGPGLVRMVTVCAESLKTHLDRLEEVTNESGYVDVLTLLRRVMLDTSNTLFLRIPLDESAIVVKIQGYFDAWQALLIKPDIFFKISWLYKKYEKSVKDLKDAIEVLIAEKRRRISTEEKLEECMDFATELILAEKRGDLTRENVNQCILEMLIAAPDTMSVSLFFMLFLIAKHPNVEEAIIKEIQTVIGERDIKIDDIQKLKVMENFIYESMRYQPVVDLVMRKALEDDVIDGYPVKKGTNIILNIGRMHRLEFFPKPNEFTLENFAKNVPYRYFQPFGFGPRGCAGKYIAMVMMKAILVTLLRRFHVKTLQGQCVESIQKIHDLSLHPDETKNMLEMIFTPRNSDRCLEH
Briefly: Aromatase activity in JEG3 choriocarcinoma cells (Protocol 6). The series is classed as cell-based.

In series [5] the target is T3, rat liver DHA-STS (Rattus norvegicus, UniProt P15589).
T3 construct: host or cells: rat liver after oral or subcutaneous dosing
T3 sequence (P15589 20-577): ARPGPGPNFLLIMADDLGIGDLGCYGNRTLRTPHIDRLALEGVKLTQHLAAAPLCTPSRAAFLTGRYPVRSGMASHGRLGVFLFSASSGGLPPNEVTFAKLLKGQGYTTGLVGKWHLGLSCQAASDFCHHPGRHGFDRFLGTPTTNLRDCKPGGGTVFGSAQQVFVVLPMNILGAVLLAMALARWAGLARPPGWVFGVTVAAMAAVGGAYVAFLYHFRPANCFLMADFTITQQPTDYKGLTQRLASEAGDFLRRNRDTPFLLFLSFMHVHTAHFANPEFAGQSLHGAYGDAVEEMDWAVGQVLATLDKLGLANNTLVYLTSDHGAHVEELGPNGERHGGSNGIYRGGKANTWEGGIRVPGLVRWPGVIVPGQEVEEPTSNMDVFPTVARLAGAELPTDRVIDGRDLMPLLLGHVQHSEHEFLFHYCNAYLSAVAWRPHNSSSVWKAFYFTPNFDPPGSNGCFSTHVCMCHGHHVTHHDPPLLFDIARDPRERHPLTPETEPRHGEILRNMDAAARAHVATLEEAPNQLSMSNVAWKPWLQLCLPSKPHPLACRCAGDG
As to conditions: administered orally or subcutaneously; cited from earlier work.

Series [6] has as its target T4, E1-STS (Homo sapiens, UniProt P08842).
T4 construct: host or cells: intact MCF-7 cells (endogenous enzyme)
T4 sequence (P08842 22-583): T1 sequence (P08842 22-583)
The settings on record: 0.1 nM; cited from earlier work.

The target in series [7] is T5, rat liver E1-STS (Rattus norvegicus, UniProt P15589).
T5 construct: host or cells: rat liver after oral or subcutaneous dosing
T5 sequence (P15589 20-577): T3 sequence (P15589 20-577)
The settings on record: administered orally or subcutaneously; cited from earlier work.

Turning to oestrone-3-N-sulphamate, the “steroid sulphatase inhibition relative to EMATE, in words” value in series [1] was “weaker non-time-dependent inactivators”.
Turning to `COc1cc2c(cc1OS(N)(=O)=O)CC[C@@H]1[C@@H]2CC[C@]2(C)C(=O)CC[C@@H]12` [2-methoxyoestrone-3-O-sulphamate], the “steroid sulphatase inhibition relative to EMATE, in words” value in series [1] is reported as “equipotent with EMATE”. Also, the “oestrogenicity, in words” value in series [2] (rat, in vivo) is listed as “devoid of oestrogenicity”.
Take oestrone-3-S-sulphamate: the “steroid sulphatase inhibition relative to EMATE, in words” value in series [1] was “weaker non-time-dependent inactivators”.
`NS(=O)(=O)Oc1ccc(Cn2cncn2)cc1` [STX270, Sulfamic Acid 4-[1,2,4]triazol-1-ylmethylphenyl ester]: the inhibition at 10 µM in series [3] was 14%.
`N#Cc1ccc(N(Cc2ccc(O)cc2)n2cnnc2)cc1` [STX265, 4-[(4-Hydroxylbenzyl)-[1,2,4]triazol-4-ylamino]benzonitrile] registered a melting point of 228 to 230 °C.
Take `NS(=O)(=O)Oc1ccc(-c2cc(=O)c3cc(OS(N)(=O)=O)ccc3o2)cc1` [Compound H342F1]: the “AROMATASE inhibition, in words” value in series [4] was “(No inhibition seen)”.
As to `CC12CCC3c4ccc(OS(N)(=O)=O)cc4CCC3C1CCC2=O` (centres unmarked) [EMATE, oestrone-3-O-sulphamate], the “inhibition of rat liver DHA-STS activity” value in series [5] is reported as 99%. In series [2] (rats, oral), the “oral uterotrophic activity relative to estradiol” value was 100 times. Also, the “inhibition of E1-STS activity in intact MCF-7 cells” value in series [6] is “more than 99%”. The “inhibition of rat liver E1-STS activity” value in series [7] was 99%.

The inhibition is the change of the read-out against control, counted positive when it falls. One may read the melting point as the temperature, or range, at which the solid turns liquid.
